This note sets out measurements from publication PMC3847553, “Kinetic properties of “dual” orexin receptor antagonists at OX1R and OX2R orexin receptors” (Frontiers in Neuroscience, 2013).

Where two headings read alike, the source gives them in different places.

In one assay the target is T1, mouse OX2R (Mus musculus, UniProt P58308).
T1 construct: expressed in transfected cells; host or cells: HEK; cells from GNF, San Diego
T1 sequence (P58308 1-460): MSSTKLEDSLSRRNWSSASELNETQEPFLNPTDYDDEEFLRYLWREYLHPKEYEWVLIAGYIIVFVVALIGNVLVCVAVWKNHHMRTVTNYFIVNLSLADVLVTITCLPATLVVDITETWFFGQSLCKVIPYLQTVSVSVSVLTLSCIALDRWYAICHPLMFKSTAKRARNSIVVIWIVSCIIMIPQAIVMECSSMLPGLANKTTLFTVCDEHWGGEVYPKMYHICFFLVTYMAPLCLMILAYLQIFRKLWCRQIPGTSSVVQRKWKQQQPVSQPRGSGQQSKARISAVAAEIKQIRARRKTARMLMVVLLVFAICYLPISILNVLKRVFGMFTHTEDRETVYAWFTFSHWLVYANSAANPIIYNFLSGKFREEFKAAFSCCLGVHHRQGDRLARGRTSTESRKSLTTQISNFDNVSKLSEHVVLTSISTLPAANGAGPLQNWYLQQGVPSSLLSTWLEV
Put plainly: FLIPR orexin A-stimulated calcium accumulation, mouse OX2R. The following applies: HEK cells. The format is cell-based. The text has this:
(§1) Chinese Hamster Ovary (CHO) cells stably transfected with the cDNA encoding the human OX1R (CHO-hOX1) or OX2R (CHO-hOX2) were used (kindly provided by T. Cremer and Dr. S. Geisse, NIBR Basel, Switzerland). For measurements of calcium accumulation using FLIPR® (Fluorescent Imaging Plate Reader) assay, CHO or Human Embryonic Kidney (HEK) cells stably expressing mouse, rat or human OX1R or OX2R (kindly provided by Dr. A. Chen, GNF, San Diego, CA, USA) were used. […] Cells were maintained in a humidified incubator at 37°C in 5% CO2. For crude cell membrane preparations, cells were washed and harvested in 10 mM HEPES (pH 7.5), and centrifuged at 4°C for 5 min at 2500 g. The cell pellet was either stored at −80°C or used directly.
(§2) Cells expressing either human, rat or mouse OX1R or OX2R were seeded at 8,000 cells/well in black 384 well clear bottom plates and incubated overnight at 37°C. The following day, medium was discarded and cells loaded with 50 μ l of 1 mM Fluo-4 AM (Invitrogen F14202) in dimethyl sulfoxide in working buffer (Hanks' balanced salt solution, 10 mM HEPES) and incubated for 60 min at 37°C. The loading buffer was removed and cells were washed with 100 μ l working buffer containing […], 0.1% BSA, and 2.5 mM Probenecid (pH 7.4) to remove the excess Fluo-4 AM. […] The assay plate was then transferred to the Molecular Devices-FLIPR384. The baseline calcium signal was recorded for 10 s, then the antagonist of interest was injected (10 μl at 3 times the final concentration) and the calcium signal recorded every second for 1 min, then every 2 s 40 times.

The target of another assay is T2, human OX2R (Homo sapiens, UniProt O43614).
T2 construct: expressed in transfected cells; host or cells: CHO; cells from GNF, San Diego
T2 sequence (O43614 1-444): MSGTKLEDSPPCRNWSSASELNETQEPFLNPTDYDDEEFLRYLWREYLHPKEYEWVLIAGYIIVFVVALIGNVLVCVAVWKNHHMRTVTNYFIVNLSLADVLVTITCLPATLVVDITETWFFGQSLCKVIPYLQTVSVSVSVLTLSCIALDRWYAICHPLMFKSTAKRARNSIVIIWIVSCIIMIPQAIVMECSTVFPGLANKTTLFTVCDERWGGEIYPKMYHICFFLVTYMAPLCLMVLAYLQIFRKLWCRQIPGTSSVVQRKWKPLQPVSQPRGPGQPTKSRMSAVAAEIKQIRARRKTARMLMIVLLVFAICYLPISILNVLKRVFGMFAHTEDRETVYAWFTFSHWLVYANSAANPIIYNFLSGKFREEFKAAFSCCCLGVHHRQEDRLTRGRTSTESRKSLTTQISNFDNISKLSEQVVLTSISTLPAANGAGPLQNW
Kind of assay: [3H]-BBAC competition binding over time, CHO-hOX2 membranes. The following applies: competition for 4.6 nM [3H]-BBAC, 15 min to 4 h, human OX2R.
Text: as §1
Cell membranes were resuspended in binding assay buffer at 4°C (10 mM HEPES, pH 7.5, 0.5% (w/v) bovine serum albumin (BSA), 5 mM MgCl2, 1 mM CaCl2, and 0.05% Tween 20) and homogenized with a Polytron homogenizer at 50 Hz for 20 s. […] Radioactivity was quantified using a TopCount™ microplate counter (Perkin Elmer).
All data was analyzed using GraphPad Prism 4.0 (GraphPad, San Diego, USA). The saturation data was fit to a non-linear regression model for saturation binding with consideration for one site binding. […] Competition binding data was fit to a non-linear regression model for competition binding with consideration for variable one site binding with a non-fixed Hill slope.

Another assay concerns the target T3, human OX1R (Homo sapiens, UniProt O43613).
T3 construct: expressed in transfected cells; host or cells: CHO; cells from GNF, San Diego
T3 sequence (O43613 1-425): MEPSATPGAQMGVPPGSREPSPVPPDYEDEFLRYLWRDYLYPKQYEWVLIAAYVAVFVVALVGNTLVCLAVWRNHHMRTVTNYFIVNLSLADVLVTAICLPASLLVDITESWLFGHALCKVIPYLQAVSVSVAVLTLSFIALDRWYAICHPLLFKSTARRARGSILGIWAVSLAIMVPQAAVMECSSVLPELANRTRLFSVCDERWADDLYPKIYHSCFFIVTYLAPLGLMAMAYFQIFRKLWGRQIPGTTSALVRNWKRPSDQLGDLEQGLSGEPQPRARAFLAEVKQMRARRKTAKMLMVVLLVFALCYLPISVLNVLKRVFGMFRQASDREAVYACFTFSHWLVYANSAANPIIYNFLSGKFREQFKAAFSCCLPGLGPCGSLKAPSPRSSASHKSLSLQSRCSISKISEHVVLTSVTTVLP
Kind of assay: FLIPR orexin A-stimulated calcium accumulation, human OX1R. It is filed as cell-based. The following applies: CHO cells.
Text: as §1, §2

[1] abbreviates: antagonist incubation 1 h, read-out: pKi (converted).
[2] abbreviates: antagonist incubation 2 h, read-out: pKi (converted).
Where [3] appears, read: antagonist incubation 4 h, read-out: pKi (converted).
Setting [4] is: pKi, antagonist incubation 30 min.
Setting [5] is: antagonist incubation 30 min, read-out: pKi (converted).

Take `CNC(=O)[C@@H](c1ccccc1)N1CCc2cc(OC)c(OC)cc2[C@@H]1CCc1ccc(C(F)(F)F)cc1` [Almorexant]: the Ki on mouse OX2R (setting [1]) is 9.33 nM; on mouse OX2R (setting [2]), 8.13 nM; on mouse OX2R (setting [3]), 4.17 nM; on mouse OX2R (setting [4]) it was 19.1 nM. The “effect of incubation time on competition curves” value (“effect of incubation time” below) at human OX2R was “substantially”.
In the case of `Cc1ccc(-c2ncccn2)c(C(=O)N2C[C@H](COc3ccc(F)cn3)CC[C@H]2C)c1` [Filorexant], the Ki is 2.14 nM at mouse OX2R (setting [5]); 2.09 nM at mouse OX2R (setting [1]); 1.45 nM at mouse OX2R (setting [2]); 1.29 nM at mouse OX2R (setting [3]); 2.24 nM on human OX1R (antagonist incubation 30 min); 1.62 nM at human OX1R (antagonist incubation 1 h). The figures for the Ki on human OX1R (antagonist incubation 2 h) and at human OX1R (antagonist incubation 4 h) were 1.66 nM and 2.82 nM, respectively. Further, on human OX2R, the “effect of incubation time” value is “shifted to the left over time, even up to 4 h”.
Take `COc1ccnc(N2CCC3(CCCN(Cc4c[nH]c5ccccc45)C3=O)CC2)n1` [IPSU, 2-((1H-Indol-3-yl)methyl)-9-(4-methoxypyrimidin-2-yl)-2,9-diazaspiro[5.5]undecan-1-one]: the Ki at mouse OX2R (setting [5]) is 70.8 nM; at mouse OX2R (setting [1]) it was 79.4 nM; at mouse OX2R (setting [2]), 55 nM; at mouse OX2R (setting [3]) it was 60.3 nM; at human OX1R (antagonist incubation 30 min), 479 nM; at human OX1R (antagonist incubation 4 h) it was 724 nM. The pKi is 6.29 −log M at human OX1R (antagonist incubation 1 h) and 6.28 −log M on human OX1R (antagonist incubation 2 h). Further, on human OX2R, the “effect of incubation time” value is reported as “do not show time-dependency”.
Turning to `Cc1nc(C(=O)N2CCCC[C@H]2CNC(=O)c2cccc3occc23)c(-c2ccc(F)cc2)s1` [SB-649868], the Ki on mouse OX2R (setting [5]) is 1.82 nM; on mouse OX2R (setting [1]) it was 2.82 nM; at mouse OX2R (setting [2]) it was 1.17 nM; on mouse OX2R (setting [3]), 0.912 nM; at human OX1R (antagonist incubation 30 min) it was 0.933 nM; on human OX1R (antagonist incubation 1 h) it was 1.35 nM. The figures for the Ki on human OX1R (antagonist incubation 2 h) and on human OX1R (antagonist incubation 4 h) were 0.513 nM and 0.417 nM, respectively. For the same compound, the “effect of incubation time” value at human OX2R was “binding appeared to be rather stable”.
As for `Cc1ccc(-n2nccn2)c(C(=O)N2CCN(c3nc4cc(Cl)ccc4o3)CC[C@H]2C)c1` [Suvorexant], the Ki was 10.2 nM at mouse OX2R (setting [4]); 6.76 nM on mouse OX2R (pKi, antagonist incubation 1 h); 5.75 nM on mouse OX2R (pKi, antagonist incubation 2 h); 4.47 nM on mouse OX2R (pKi, antagonist incubation 4 h). The “effect of incubation time” value at human OX2R is listed as “shifted to the left over time”.
